Columns and labels:
[1] = biological target: Sodium-dependent noradrenaline transporter (Homo sapiens, UniProt P23975); experiment: ChEBML_1661745
Method: Inhibition of [3H]mazindol binding to recombinant human NET expressed in HEK293 cell membranes preincubated for 10 mins followed by radioligand addition measured after 90 mins by micro beta scintillation counting analysis

[2] = biological target: T1, Sodium-dependent serotonin transporter (Homo sapiens, UniProt P31645); experiment: Inhibition of [3H]mazindol binding to recombinant human SERT expressed in HEK293 cell membranes preincubated for 10 mins followed by radioligand addition measured after 90 mins by micro beta scintillation counting analysis
[3] = biological target: T1, Sodium-dependent serotonin transporter; experiment: Inhibition of [125I]RTI-55 binding to recombinant human SERT expressed in HEK293 cell membranes preincubated for 10 mins followed by radioligand addition measured after 90 mins by micro beta scintillation counting analysis

T1 sequence (P31645 whole entry): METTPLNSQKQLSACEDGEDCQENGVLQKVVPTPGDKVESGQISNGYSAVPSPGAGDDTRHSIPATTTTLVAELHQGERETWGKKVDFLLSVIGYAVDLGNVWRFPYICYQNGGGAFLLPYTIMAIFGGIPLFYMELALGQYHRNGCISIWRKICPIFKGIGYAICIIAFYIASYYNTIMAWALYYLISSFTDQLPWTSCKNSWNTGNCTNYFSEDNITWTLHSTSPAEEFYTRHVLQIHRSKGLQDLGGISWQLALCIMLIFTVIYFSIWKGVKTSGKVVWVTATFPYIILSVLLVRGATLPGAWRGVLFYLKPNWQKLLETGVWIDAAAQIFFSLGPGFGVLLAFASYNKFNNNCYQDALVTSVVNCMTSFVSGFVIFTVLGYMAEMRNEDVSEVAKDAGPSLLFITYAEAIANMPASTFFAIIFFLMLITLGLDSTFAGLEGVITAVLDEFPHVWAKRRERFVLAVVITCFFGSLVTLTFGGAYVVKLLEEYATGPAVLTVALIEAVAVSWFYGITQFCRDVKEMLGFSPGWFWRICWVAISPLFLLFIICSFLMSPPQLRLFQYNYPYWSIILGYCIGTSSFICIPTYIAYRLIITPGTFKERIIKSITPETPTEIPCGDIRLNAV
Chain of Sodium-dependent noradrenaline transporter (P23975 whole entry): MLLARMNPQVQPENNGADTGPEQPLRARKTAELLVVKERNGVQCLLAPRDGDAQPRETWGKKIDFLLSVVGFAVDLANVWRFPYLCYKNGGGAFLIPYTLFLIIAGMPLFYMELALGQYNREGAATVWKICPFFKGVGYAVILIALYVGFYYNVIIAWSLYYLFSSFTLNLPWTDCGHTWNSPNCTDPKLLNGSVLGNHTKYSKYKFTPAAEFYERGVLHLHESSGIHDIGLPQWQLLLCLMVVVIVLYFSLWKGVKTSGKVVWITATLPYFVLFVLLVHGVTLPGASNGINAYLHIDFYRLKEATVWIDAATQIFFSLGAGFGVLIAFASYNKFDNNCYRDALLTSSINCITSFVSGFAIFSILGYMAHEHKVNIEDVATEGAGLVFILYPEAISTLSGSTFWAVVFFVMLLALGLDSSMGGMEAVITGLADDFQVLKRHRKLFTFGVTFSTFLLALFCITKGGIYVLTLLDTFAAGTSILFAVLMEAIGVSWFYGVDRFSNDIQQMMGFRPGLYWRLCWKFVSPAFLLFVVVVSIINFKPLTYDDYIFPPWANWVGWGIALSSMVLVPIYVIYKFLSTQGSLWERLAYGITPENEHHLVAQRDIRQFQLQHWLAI

Structure (SMILES)	Ki [1] [µM]	Ki [2] [µM]	Ki [3] [µM]
COC(=O)[C@H]1[C@@H](c2ccc([125I])cc2)CC2CC[C@H]1N2C	0.07	0.0013	–
O[C@]1(c2ccc(Cl)cc2)c2ccccc2C2=NCCN21 [Mazanor]	–	0.045	0.136

— BindingDB's records for doi:10.1021/acs.jmedchem.7b00141 (National Institute of Diabetes and Digestive and Kidney …, 2017)
